In patent US20230028441A1, “NOVEL HETEROARYL-TRIAZOLE COMPOUNDS AS PESTICIDES” (Bayer Aktiengesellschaft, priority 2019, published 2023):

Tests used:
Format in all cases: in vivo
[1] = tested on: adult engorged female ticks (Rhipicephalus microplus); assay: Rhipicephalus (Boophilus) microplus injection test; details: 168 h, egg deposition after 7 days, read-out: efficacy (infertile eggs); for pest or weed control at 0.004 mg: 4 μg/animal; for pest or weed control at 0.02 mg: 20 μg/animal
Description: Solvent: dimethyl sulfoxide
To produce a suitable preparation of active compound, 10 mg of active compound are dissolved in 0.5 mL solvent, and the concentrate is diluted with solvent to the desired concentration.
Five adult engorged female ticks (Rhipicephalus microplus) are injected with 1 μL compound solution into the abdomen. The ticks are transferred into replica plates and incubated in a climate chamber.
After 7 days egg deposition of fertile eggs is monitored. Eggs where fertility is not visible are stored in a climate chamber till hatching after about 42 days. An efficacy of 100% means all eggs are infertile; 0% means all eggs are fertile.

[2] = tested on: larvae of the banded cucumber beetle (Diabrotica balteata); assay: Diabrotica balteata spray test; details: 168 h, after 7 days, wheat seeds, read-out: efficacy (seedlings grown up); for pest or weed control at 160 µg/disc, 500 g/ha: 500 g/ha (=160 μg/well); for pest or weed control at 32 µg/disc, 100 g/ha: 100 g/ha (=32 μg/well)
Description: (§1) Solvent: 78.0 parts by weight of acetone • • 1.5 parts by weight of dimethylformamide
(§2) Emulsifier: alkylarylpolyglycol ether
(§3) To produce a suitable preparation of active compound, 1 part by weight of active compound is mixed with the stated amount of solvent, and the concentrate is diluted with water, containing an emulsifier concentration of 1000 ppm, to the desired concentration. Further test concentrations are prepared by dilution with emulsifier containing water.
Soaked wheat seeds (Triticum aestivum) are placed in a multiple well plate filled with agar and some water and are incubated for 1 day to germinate (5 seeds per well). The germinated wheat seeds are sprayed with a test solution containing the desired concentration of the active ingredient. Afterwards each unit is infected with 10-20 larvae of the banded cucumber beetle (Diabrotica balteata).
After 7 days efficacy in % is determined. 100% means all the seedlings have grown up like in the untreated, uninfected control; 0% means none of the seedlings have grown.

[3] = tested on: fall armyworm larvae (Spodoptera frugiperda); assay: Spodoptera frugiperda spray test (maize leaf sections); details: 168 h
Description: Solvent: 78.0 parts by weight acetone • 1.5 parts by weight dimethylformamide
as §2
as §3, with “solvents” for “solvent,”, “and” for “and the concentrate”
Maize (Zea mays) leaf sections are sprayed with a preparation of the active ingredient of the desired concentration. Once dry, the leaf sections are infested with fall armyworm larvae (Spodoptera frugiperda).
After 7 days mortality in % is determined. 100% means all caterpillars have been killed and 0% means none of the caterpillars have been killed.

[4] = tested on: larvae of the southern green stink bug (Nezara viridula); assay: Nezara viridula spray test; details: in Hordeum vulgare, 96 h
Description: as §1, §2, §3
Barley plants (Hordeum vulgare) infested with larvae of the southern green stink bug (Nezara viridula) are sprayed with a test solution containing the desired concentration of the active ingredient.
After 4 days mortality in % is determined. 100% means all the stink bugs have been killed; 0% means none of the stink bugs have been killed.

[5] = tested on: cattle tick larvae (Rhipicephalus microplus), strain Parkhurst, resistant against synthetic pyrethroids; assay: Rhipicephalus (Boophilus) microplus in-vitro contact test, larval cattle tick; details: 5 μg/cm^2 (=500 g/ha), after 48 hours, read-out: efficacy (larvae dead or moribund)
Description: 9 mg compound is solved in 1 mL acetone and diluted with acetone to the desired concentration. 250 μL of the test solution is filled in 25 mL glass test tubes and homogeneously distributed on the inner walls by rotation and tilting on a shaking device (2 h at 30 rpm). With a compound concentration of 900 ppm, an inner surface of 44.7 cm^2 and a homogeneous distribution, a dose of 5 μg/cm^2 is achieved.
After the solvent has evaporated, each test tube is filled with 20-50 cattle tick larvae (Rhipicephalus microplus), closed with a perforated lid and incubated in a horizontal position at 85% relative humidity and 27° C. in an incubator. After 48 hours efficacy is determined. The larvae are patted on the ground of the tubes and negative geotactic behaviour is recorded.
An efficacy of 100% means all larvae are dead or moribund; 0% means no larvae are dead or moribund.

Compound	mortality at 500 g/ha [4] [%]	pest or weed control at 32 µg/disc, 100 g/ha [2] [%]	mortality at 100 g/ha [3] [%]	also measured
CC(NC(=O)c1cc(Cl)cc(C(F)(F)F)c1)c1nc(NC(=O)OC(C)(C)C)nn1-c1ncccn1 (racemic) [I-001, tert-butyl N-[5-[1-[[3-chloro-5-(trifluoromethyl)benzoyl]amino]ethyl]-1-pyrimidin-2-yl-1,2,4-triazol-3-yl]carbamate]				pest or weed control at 0.004 mg [1]: 100%; pest or weed control at 0.02 mg [1]: 100%; pest or weed control at 160 µg/disc, 500 g/ha [2]: 100%; mortality at 500 g/ha [3]: 100%
CC(NC(=O)c1cc(Cl)cc(S(C)(=O)=O)c1)c1nc(N(S(C)(=O)=O)S(C)(=O)=O)nn1-c1ccc(Cl)cn1 (racemic) [I-026, N-[1-[5-[bis(methylsulfonyl)amino]-2-(5-chloro-2-pyridyl)-1,2,4-triazol-3-yl]ethyl]-3-chloro-5-methylsulfonyl-benzamide]	90			pest or weed control at 0.004 mg [1]: 100%; pest or weed control at 0.02 mg [1]: 100%; pest or weed control at 160 µg/disc, 500 g/ha [2]: 100%
CC(NC(=O)c1cc(Br)cc(Br)c1)c1nc(NC(=O)OC(C)(C)C)nn1-c1ccc(C(=O)N2CCOCC2)cn1 (racemic) [I-106, tert-butyl N-[5-[1-[(3,5-dibromobenzoyl)amino]ethyl]-1-[5-(morpholine-4-carbonyl)-2-pyridyl]-1,2,4-triazol-3-yl]carbamate]				pest or weed control at 5 µg/cm2 [5]: 80%
CC(NC(=O)c1cc(Cl)cc(S(C)(=O)=O)c1)c1nc(NC(=O)OC(C)(C)C)nn1-c1ccc(Cl)cn1 (centres unmarked) [I-002]				pest or weed control at 0.004 mg [1]: 100%; pest or weed control at 0.02 mg [1]: 100%
CC(NC(=O)c1cc(Cl)cc(C(F)(F)F)c1)c1nc(-c2ccc(Cl)nc2)nn1-c1ncccn1 (centres unmarked) [I-043]				pest or weed control at 0.004 mg [1]: 80%
CC(NC(=O)c1cc(Cl)cc(S(C)(=O)=O)c1)c1nc(-c2ncccn2)nn1-c1ncccn1 (centres unmarked) [I-052]				pest or weed control at 0.004 mg [1]: 100%; pest or weed control at 0.02 mg [1]: 100%
CC(NC(=O)c1cc(Cl)cc(S(C)(=O)=O)c1)c1nc(SCC(F)(F)F)nn1-c1ccc(Cl)cn1 (centres unmarked) [I-065]				pest or weed control at 0.004 mg [1]: 100%; pest or weed control at 0.02 mg [1]: 100%
CC(NC(=O)c1cc(Cl)cc(C(F)(F)F)c1)c1nc(SCC(F)(F)F)nn1-c1ccc(Cl)cn1 (centres unmarked) [I-067]				pest or weed control at 0.02 mg [1]: 100%
CC(NC(=O)c1cc(Cl)cc(C(F)(F)F)c1)c1nc([S+]([O-])CC(F)(F)F)nn1-c1ccc(Cl)cn1 (centres unmarked) [I-068]				pest or weed control at 0.004 mg [1]: 80%; pest or weed control at 0.02 mg [1]: 100%
CC(NC(=O)c1cc(Cl)cc(S(C)(=O)=O)c1)c1nc(Cc2ccccc2)nn1-c1ncccn1 (centres unmarked) [I-084]				mortality at 100 g/ha [4]: 90%
CC(NC(=O)c1cc(C(F)(F)F)cc(C(F)(F)F)c1)c1nc(Cc2c(F)cccc2F)nn1-c1ncccn1 (centres unmarked) [I-086]		100		
CC(NC(=O)c1cc(C(F)(F)F)cc(C(F)(F)F)c1)c1nc(NC(=O)OC(C)(C)C)nn1-c1ccc(C#N)cn1 (centres unmarked) [I-096]				pest or weed control at 0.004 mg [1]: 100%
CC(NC(=O)c1cc(Br)cc(Br)c1)c1nc(NC(=O)OC(C)(C)C)nn1-c1ccc(C#N)cn1 (centres unmarked) [I-098]				pest or weed control at 0.004 mg [1]: 100%
CC(NC(=O)c1cc(Br)cc(C(F)(F)F)c1)c1nc(NC(=O)OC(C)(C)C)nn1-c1ccc(C#N)cn1 (centres unmarked) [I-102]				pest or weed control at 0.004 mg [1]: 100%
CON(C)c1nc([C@H](C)NC(=O)c2cc(Br)cc(Br)c2)n(-c2ncccn2)n1 [I-150]		100	100	
CC(NC(=O)c1cc(Cl)cc(C(C)(C)C#N)c1)c1nc(N(C)C)nn1-c1ccc(C#N)cn1 (centres unmarked) [I-156]	100	100	100	
CC(NC(=O)c1cc(Cl)cc(S(C)(=O)=O)c1)c1nc(N(C)C)nn1-c1ccc(C#N)cn1 (centres unmarked) [I-157]	90			
CC(NC(=O)c1cc(C(F)(F)F)cc(C(F)(F)F)c1)c1nc(N(C)C)nn1-c1ccc(C#N)cn1 (centres unmarked) [I-162]	100	100	100	
CC(NC(=O)c1cc(OC(F)(F)F)cc(C2CC2)c1)c1nc(N(C)C)nn1-c1ccc(C#N)cn1 (centres unmarked) [I-164]	100	100	100	

Compound	mortality at 500 g/ha [4] [%]	pest or weed control at 32 µg/disc, 100 g/ha [2] [%]	mortality at 100 g/ha [3] [%]	also measured
CC(NC(=O)c1cc(OC(F)(F)F)cc(C2CC2)c1)c1nc(N(C)C)nn1-c1ncc(Cl)cn1 (centres unmarked) [I-166]	100	100	100	
CSc1nc(C(C)NC(=O)c2cc(OC(F)(F)F)cc(S(C)(=O)=O)c2)n(-c2ncc(C#N)s2)n1 (centres unmarked) [I-167, N-{1-[1-(5-cyano-1,3-thiazol-2-yl)-3-(methylsulfanyl)-1H-1,2,4-triazol-5-yl]ethyl}-3-(methylsulfonyl)-5-(trifluoromethoxy)benzamide]	100	100	100	
CC(NC(=O)c1cc(Cl)cc(S(C)(=O)=O)c1)c1nc(N(C)C)nn1-c1ncc(Cl)cn1 (centres unmarked) [I-171]	100		100	
C[C@H](NC(=O)c1cc(Br)cc(C(F)(F)F)c1)c1nc(N)nn1-c1ccc(C#N)cn1 [I-172]		100	100	
C[C@H](NC(=O)c1cc(C(F)(F)F)cc(C(F)(F)F)c1)c1nc(N2CCCC2)nn1-c1ncccn1 [I-190]	100	100	100	
CC(NC(=O)c1cc(OC(F)(F)F)cc(S(=O)(=O)C(C)C)c1)c1nc(N(C)C)nn1-c1ncc(Cl)cn1 (centres unmarked) [I-191]	90	100		
CC(NC(=O)c1cc(OC(F)(F)F)cc(S(=O)(=O)C2CC2)c1)c1nc(N(C)C)nn1-c1ncc(Cl)cn1 (centres unmarked) [I-193]	100	100	100	
CCS(=O)(=O)c1cc(OC(F)(F)F)cc(C(=O)NC(C)c2nc(N(C)C)nn2-c2ncc(Cl)cn2)c1 (centres unmarked) [I-194]	100	100	100	
CC(NC(=O)c1cc(OC(F)(F)F)cc(C2CC2)c1)c1nc(N2CCCCC2)nn1-c1ncccn1 (centres unmarked) [I-196]	90			
C[C@H](NC(=O)c1cc(OC(F)(F)F)cc(C2CC2)c1)c1nc(N2CCOCC2)nn1-c1ncc(C#N)s1 [I-197]		100		
CC(NC(=O)c1cc(Cl)cc(S(C)(=O)=O)c1)c1nc(N2CCCCC2)nn1-c1ncccn1 (centres unmarked) [I-198]		80		
C[C@H](NC(=O)c1cc(C(F)(F)F)cc(C(F)(F)F)c1)c1nc(N2CCOCC2)nn1-c1ncc(C#N)s1 [I-199]		100		
C[C@H](NC(=O)c1cc(OC(F)(F)F)cc(C2CC2)c1)c1nc(N2CCCC2)nn1-c1ncccn1 [I-203]	100	100	100	
C[C@H](NC(=O)c1cc(Cl)cc(C(C)(C)C#N)c1)c1nc(N2CCOCC2)nn1-c1ccc(C#N)cn1 [I-204]	100		100	
CNc1nc([C@H](C)NC(=O)c2cc(OC(F)(F)F)cc(C3CC3)c2)n(-c2ncc(C#N)s2)n1 [I-206]			100	
CNc1nc([C@H](C)NC(=O)c2cc(C(F)(F)F)cc(C(F)(F)F)c2)n(-c2ncc(C#N)s2)n1 [I-208]			100	
CNc1nc([C@H](C)NC(=O)c2cc(Br)cc(OC(F)(F)F)c2)n(-c2ncc(C#N)s2)n1 [I-209]			100	
CNc1nc([C@H](C)NC(=O)c2cc(Br)cc(Br)c2)n(-c2ncc(C#N)s2)n1 [I-210]			100	
CNc1nc([C@H](C)NC(=O)c2cc(OC(F)(F)F)cc(S(C)(=O)=O)c2)n(-c2ncc(C#N)s2)n1 [I-212]			100	
